Source: US12319652B2, “Salts and solid forms of (R)-1-(5-methoxy-1H-indol-1-yl)-N,N-dimethylpropan-2-amine” (priority 2021, dated 2025)
Like-named read-outs stand apart in the source and are kept apart here.

Experiments:
[1] = assay type: physicochemical
Method: Equilibrium Humidity Evaluation (40° C./75% RH for 10 Days)
100 mg portions of compound 1 salts (for inputs see table below) were placed in the relevant open vials. The powders were finely divided and distributed evenly over the base of the vial, such that equal material coverage across the panel was observed. These samples were then maintained 40°C. under 75% RH. The samples were sub-sampled at intervals of 5 and 10 days and analysed by ^1H NMR, HPLC, XRPD, DSC, TGA and PLM, for evidence of phase change or chemical degradation (FIG. 269-297).

[2] = Solubility determinations in SIF buffers (FaSSIF, FeSSIF, FaSSGF); assay type: physicochemical; settings: for XRPD (dried) / XRPD (wet): solid residue
Method: At this stage ca. 1 g of each front-runner salt form was prepared. Salt forms that offered significant solubility and stability advantages over the non-ionized API were prioritized. […] Scale Up
The solubility of the salts below was determined in FaSSIF, FeSSIF and FaSSGF by reference to the calibration curve of amorphous compound 1.
Separate portions of compound 1 were weighed out into aluminum boats and were charged to the relevant volumetric flasks. Solutions were made to volume with 1 to 1 (v/v) acetonitrile/purified water to give calibrants of known API concentrations and analyzed by HPLC, suitable to determine the concentration of compound 1 free base in the SIF buffer solubility study.
Each sample (150 mg) was suspended in the relevant SIF buffer (5.0 ml), to give a concentration of 30 mg/ml and maintain at 37° C. for 24 h. The pH was adjusted using 1 M HCl or 1 M NaOH, to ensure that the suspension remains in range.
Sample (1 ml) of the well-stirred representative suspensions was obtained at 1 h, 3 h, 6 h and 24 h and the pH was recorded. The pH of the bulk suspension was re-adjusted when necessary. The obtained sample from each vial was centrifuged, and the supernatant was analysed by HPLC (note, the analyte was diluted, when outside of the calibration range); XRPD analysis was performed on the wet sample pellet for evidence of form change, as well as on the oven-dried pellet (undervacuum at 40° C.).

[3] = Dynamic vapor sorption (DVS); assay type: physicochemical
Method: There are two main methods to use, one is by time where the equilibration is given by a fixed time, i.e., 1 hour per step and is appropriate for an unknown phase. The second, is by mass per time unit (dm/dt) of 0.002%/min; that is when the difference in weight is less than 0.002%, the instrument moves onto the next step. For unknown hygroscopicity, the method by time is indicated because it gives an idea of water affinity without wasting much time. Ideally the analyses are repeated using the mass equilibration method to confirm. By experience for hygroscopic samples, the analysis can continue for days. For non-hygroscopic samples the difference between the two methods may not be significant.
Consequently, amorphous batch 1 was analyzed by the fixed time method and once compound 1 fumarate crystalline polymorphic Form A was generated the analyses was repeated as mass per unit time equilibrated @dm/dt ([…]) and is given below (refer to FIG. 12).
(§1) The moisture sorption properties of the feed API were analysed by DVS Intrinsic instrument (Surface Measurement System). Approximately 20 to 50 mg of API was weighed onto an aluminium pan and loaded into the instrument equilibrated at 25° C. The sample was equilibrated under a dry atmosphere (0% relative humidity) for 60 minutes, before increasing the humidity from 0% to 30% at 5%4 step increment and from 30% to 90% at 10% step increment. A desorption cycle was also applied from 90% to 30% (10% step decrement) and from 30% to 0% (5% step decrement). A rate of change in mass per time unit (dm/dt) of 0.002%/min was set as the equilibrium parameter. Kinetic and isotherm graphs were calculated.
Specimens were equilibrated at 0% RH for 60 min, prior to DVS analyses (stepped increment % RH up to 90% RH and stepped decrement % RH down to 0% RH.
as §1, with “5%” for “5%4”

[4] = FaSSGF (ph 1.6), t = 1 h@37° C.
[5] = FaSSGF (ph 1.6), t = 3 h@37° C.
[6] = FaSSGF (ph 1.6), t = 6 h@37° C.
[7] = FaSSGF (ph 1.6), t = 24 h @37° C.
[8] = FaSSIF (ph 6.5), t = 1 h@37° C.
[9] = FaSSIF (ph 6.5), t = 3 h@37° C.
[10] = FaSSIF (ph 6.5), t = 6 h@37° C.
[11] = FaSSIF (ph 6.5), t = 24 h @37° C.
[12] = FeSSIF (ph 5.0), t = 1 h@37° C.
[13] = FeSSIF (ph 5.0), t = 3 h@37° C.
[14] = FeSSIF (ph 5.0), t = 6 h@37° C.
[15] = FeSSIF (ph 5.0), t = 24 h @37° C.

COc1ccc2c(ccn2C[C@@H](C)N(C)C)c1.O=C(O)c1ccccc1 [Benzoate salt]
HPLC peak RRT 1.00 (reference peak) ([1]; salt before storage (t = 0)): 99.64 | HPLC peak RRT 1.09 ([1]; salt before storage (t = 0)): 0.03 | HPLC peak RRT 1.16 ([1]; salt before storage (t = 0)): 0.03 | HPLC peak RRT 1.19 ([1]; salt before storage (t = 0)): 0.10 | HPLC peak RRT 1.20 ([1]; salt before storage (t = 0)): 0.02 | HPLC peak RRT 1.24 ([1]; salt before storage (t = 0)): 0.06 | HPLC peak RRT 1.26 ([1]; salt before storage (t = 0)): 0.01 | HPLC peak RRT 1.35 ([1]; salt before storage (t = 0)): 0.10 | HPLC peak RRT 0.98 ([1]; t = 5 d at 75% RH at 40° C.): 0.04 | HPLC peak RRT 1.00 (reference peak) ([1]; t = 5 d at 75% RH at 40° C.): 99.64 | HPLC peak RRT 1.16 ([1]; t = 5 d at 75% RH at 40° C.): 0.03 | HPLC peak RRT 1.19 ([1]; t = 5 d at 75% RH at 40° C.): 0.10 | HPLC peak RRT 1.20 ([1]; t = 5 d at 75% RH at 40° C.): 0.02 | HPLC peak RRT 1.26 ([1]; t = 5 d at 75% RH at 40° C.): 0.05 | HPLC peak RRT 1.35 ([1]; t = 5 d at 75% RH at 40° C.): 0.11 | HPLC peak RRT 0.98 ([1]; t = 10 d at 75% RH at 40° C.): 0.04 | HPLC peak RRT 1.00 (reference peak) ([1]; t = 10 d at 75% RH at 40° C.): 99.52 | HPLC peak RRT 1.08 ([1]; t = 10 d at 75% RH at 40° C.): 0.05 | HPLC peak RRT 1.16 ([1]; t = 10 d at 75% RH at 40° C.): 0.04 | HPLC peak RRT 1.19 ([1]; t = 10 d at 75% RH at 40° C.): 0.13 | HPLC peak RRT 1.20 ([1]; t = 10 d at 75% RH at 40° C.): 0.02 | HPLC peak RRT 1.26 ([1]; t = 10 d at 75% RH at 40° C.): 0.07 | HPLC peak RRT 1.35 ([1]; t = 10 d at 75% RH at 40° C.): 0.12

COc1ccc2c(ccn2C[C@@H](C)N(C)C)c1.O=C(O)/C=C/C(=O)O [Compound 1 · Fumarate]
Solubility [2, 4]: >30 mg/mL | Solubility [2, 5]: >30 mg/mL | Solubility [2, 6]: >30 mg/mL | Solubility [2, 7]: >30 mg/mL | Solubility [2, 8]: >30 mg/mL | Solubility [2, 9]: >30 mg/mL | Solubility [2, 10]: >30 mg/mL | Solubility [2, 11]: >30 mg/mL | Solubility [2, 12]: >30 mg/mL | Solubility [2, 13]: >30 mg/mL | Solubility [2, 14]: >30 mg/mL | Solubility [2, 15]: >30 mg/mL

COc1ccc2c(ccn2C[C@@H](C)N(C)C)c1.O=C(O)c1ccccc1 [Compound 1 · Benzoate]
Solubility [2, 4]: 28.74 mg/mL | Solubility [2, 5]: 26.85 mg/mL | Solubility [2, 6]: 26.33 mg/mL | Solubility [2, 7]: 25.59 mg/mL | Solubility [2, 8]: >30 mg/mL | Solubility [2, 9]: >30 mg/mL | Solubility [2, 10]: >30 mg/mL | Solubility [2, 11]: >30 mg/mL | Solubility [2, 12]: >30 mg/mL | Solubility [2, 13]: >30 mg/mL | Solubility [2, 14]: >30 mg/mL | Solubility [2, 15]: >30 mg/mL | XRPD (dried) [2, 4]: Benzoic acid | XRPD (wet) [2, 4]: Benzoic acid | XRPD (dried) [2, 5]: Benzoic acid | XRPD (wet) [2, 5]: Benzoic acid | XRPD (dried) [2, 6]: Benzoic | XRPD (wet) [2, 6]: Benzoic acid | XRPD (dried) [2, 7]: Benzoic | XRPD (wet) [2, 7]: Benzoic

COc1ccc2c(ccn2C[C@@H](C)N(C)C)c1.Cl [Compound 1 HCl (Form A)]
DVS 0 to 90 to 0% RH (dm/dt <0.002%) ([3]; 0.0% RH, sorption): DVS 0 to 90 to 0% RH (dm/dt <0.002%): 0.0 (0.00%), 5.0 (0.00%), | DVS 0 to 90 to 0% RH (dm/dt <0.002%) ([3]; 5.0% RH, desorption): 0.03% | DVS 0 to 90 to 0% RH (dm/dt <0.002%) ([3]; 5.0% RH, sorption): DVS 0 to 90 to 0% RH (dm/dt <0.002%): 0.0 (0.00%), 5.0 (0.00%), | DVS 0 to 90 to 0% RH (dm/dt <0.002%) ([3]; 10.0% RH, desorption): 0.04% | DVS 0 to 90 to 0% RH (dm/dt <0.002%) ([3]; 10.0% RH, sorption): 0.02% | DVS 0 to 90 to 0% RH (dm/dt <0.002%) ([3]; 15.0% RH, desorption): 0.05% | DVS 0 to 90 to 0% RH (dm/dt <0.002%) ([3]; 15.0% RH, sorption): 0.02% | DVS 0 to 90 to 0% RH (dm/dt <0.002%) ([3]; 20.0% RH, desorption): 0.06% | DVS 0 to 90 to 0% RH (dm/dt <0.002%) ([3]; 20.0% RH, sorption): 0.03% | DVS 0 to 90 to 0% RH (dm/dt <0.002%) ([3]; 25.0% RH, desorption): 0.07% | DVS 0 to 90 to 0% RH (dm/dt <0.002%) ([3]; 25.0% RH, sorption): 0.04% | DVS 0 to 90 to 0% RH (dm/dt <0.002%) ([3]; 30.0% RH, desorption): 0.09% | DVS 0 to 90 to 0% RH (dm/dt <0.002%) ([3]; 30.0% RH, sorption): 0.05% | DVS 0 to 90 to 0% RH (dm/dt <0.002%) ([3]; 40.0% RH, desorption): 0.10% | DVS 0 to 90 to 0% RH (dm/dt <0.002%) ([3]; 40.0% RH, sorption): 0.07% | DVS 0 to 90 to 0% RH (dm/dt <0.002%) ([3]; 50.0% RH, desorption): 0.14% | DVS 0 to 90 to 0% RH (dm/dt <0.002%) ([3]; 50.0% RH, sorption): 0.10% | DVS 0 to 90 to 0% RH (dm/dt <0.002%) ([3]; 60.0% RH, desorption): 0.17% | DVS 0 to 90 to 0% RH (dm/dt <0.002%) ([3]; 60.0% RH, sorption): 0.14% | DVS 0 to 90 to 0% RH (dm/dt <0.002%) ([3]; 70.0% RH, desorption): 0.22% | DVS 0 to 90 to 0% RH (dm/dt <0.002%) ([3]; 70.0% RH, sorption): 0.19% | DVS 0 to 90 to 0% RH (dm/dt <0.002%) ([3]; 80.0% RH, desorption): 0.29% | DVS 0 to 90 to 0% RH (dm/dt <0.002%) ([3]; 80.0% RH, sorption): 0.26% | DVS 0 to 90 to 0% RH (dm/dt <0.002%) ([3]; 90.0% RH, desorption): 0.46% | DVS 0 to 90 to 0% RH (dm/dt <0.002%) ([3]; 90.0% RH, sorption): 0.46%
